The results in this text go back to patent US6784173B2, “Aromatic dicarboxylic acid derivatives” (Hoffmann-La Roche Inc., priority 2001, dated 2004).

The term IC50 denotes the concentration that inhibits the measured activity by half.

The structures appear in SMILES notation.

For the test, the system named is HT-29 cells (human colon carcinoma cell line). Kind of test: MTT tetrazolium dye proliferation assay on HT-29 cells. Type of test: cell-based. The note with it: MTT assay after 5 days of compound exposure, 30 uM to 1.5 nM, read-out: IC50 HT29. As for the experimental part: MTT (tetrazolium dye proliferation assay) is widely used for the quantitative determination of cytotoxic effects or in vitro chemosensitivity of tumor cells. The assay is based on the cleavage of the yellow tetrazolium salt MTT to purple formazan crystals by metabolic active cells. For details, see Rubinstein, L. V., et al., J. Natl. Cancer Inst. 82 (1990) 1113-1118.
The following procedure was performed: HT-29 cells (human colon carcinoma cell line) were cultivated in RPMI 1640, 2.5% FCS, 2 mM Glutamine, 100 u/ml Penicillin, 100 ug/ml Streptomycin. For the assay the cells were seeded in 384 well plates, 900 cells per well, in the same medium The next day compounds (dissolved 10 mM in DMSO) were added in various concentrations ranging from 30 uM to 1.5 nM. After 5 days the MTT assay was done mainly according to the instructions of the manufacturer (Cell proliferation kit I, MTT, form Roche Molecular Biochemicals). In brief: MTT labeling reagent was added to a final concentration of 0.5 mg/ml, added and incubated for 4 hrs at 37 C., 5% CO2. During this incubation time purple formazan crystals are formed. After addition of the solubilization solution (20% SDS in 0.02 M HCl) the plates were incubated overnight at 37 C, 5% CO2. After careful mixing plates were measured in Victor 2 (scanning multiwell spectrophotometer, Wallac) at 550 nm.
A decrease in number of living cells results in a decrease in the total metabolic activity in the sample. The decrease directly correlates to the amount of purple colour resulting from the solubilization of the purple formazan crystals. Determination of IC50 was done using XL-fit.
For orientation: Tetrazolium assays rely on reduction of a dye to a coloured formazan, in cell work by metabolically active cells.

For `O=C(NO)c1ccc(C(=O)NCc2ccc(C(F)(F)F)cc2)s1` [Example 2, Thiophene-2,5-dicarboxylic acid 2-hydroxyamide 5-(4-trifluoromethyl-benzylamide)], the IC50 amounted to 110 nM.

In the case of `O=C(NO)c1ccc(C(=O)NCc2cccc(Cl)c2)s1` [Example 4, Thiophene-2,5-dicarboxylic acid 2-(3-chloro-benzylamide) 5-hydroxyamide], the IC50 turned out to be 140 nM.

As to `Cc1cc(C)cc(CNC(=O)c2ccc(C(=O)NO)s2)c1` [Example 5, Thiophene-2,5-dicarboxylic acid 2-(3,5-dimethyl-benzylamide) 5-hydroxyamide], the IC50 amounted to 50 nM.

In the case of `CC(C)CCCC(C)NC(=O)c1ccc(C(=O)NO)s1` (centres unmarked) [Example 15, No. 81, thiophene-2,5-dicarboxylic acid 2-[(1,5-dimethyl-hexyl)-amide] 5-hydroxyamide], the IC50 was 30 nM.

For `O=C(NO)c1ccc(C(=O)NCCC(c2ccccc2)c2ccccc2)s1` [Example 15, No. 90, thiophene-2,5-dicarboxylic acid 2-[(3,3-diphenyl-propyl)-amide] 5-hydroxyamide], the IC50 was 140 nM.

In the case of `O=C(NO)c1ccc(C(=O)NCc2cc(C(F)(F)F)cc(C(F)(F)F)c2)s1` [Example 15, No. 93, Thiophene-2,5-dicarboxylic acid 2-(3,5-bis-trifluoromethyl-benzylamide) 5-hydroxyamide], the IC50 turned out to be 50 nM.

Take `O=C(NO)c1ccc(C(=O)NCc2cccc(Br)c2)s1` [Example 15, No. 94, Thiophene-2,5-dicarboxylic acid 2-(3-bromo-benzylamide) 5-hydroxyamide]: the IC50 worked out at 70 nM.

Consider `CC(C)(C)c1ccc(CNC(=O)c2ccc(C(=O)NO)s2)cc1` [Example 15, No. 98, Thiophene-2,5-dicarboxylic acid 2-(4-tert-butyl-benzylamide) 5-hydroxyamide], for which the IC50 was 70 nM.

Turning to `O=C(NO)c1ccc(C(=O)NCCOc2ccccc2)s1` [Example 15, No. 104, Thiophene-2,5-dicarboxylic acid 2-hydroxyamide 5-[(2-phenoxy-ethyl)-amide]], the IC50 stood at 40 nM.

As for `CC(CCc1ccccc1)NC(=O)c1ccc(C(=O)NO)s1` (centres unmarked) [Example 15, No. 128, Thiophene-2,5-dicarboxylic acid 2-hydroxyamide 5-[(1-methyl-3-phenyl-propyl)-amide]], the IC50 is 20 nM.

Turning to `O=C(NO)c1ccc(C(=O)NCc2ccc(Cl)c(Cl)c2)s1` [Example 15, No. 139, Thiophene-2,5-dicarboxylic acid 2-(3,4-dichloro-benzylamide) 5-hydroxyamide], the IC50 stood at 170 nM.
